In US6649595B2, “Regulation of biological events using novel compounds” (ARIAD Gene Therapeutics, Inc., priority 1995, dated 2003):
Where two headings read alike, the source gives them in different places.

Target: T1, FKBPwt (Homo sapiens, UniProt P62942)
T1 construct: made in house
Test: Competitive fluorescence polarization (FP) binding assay of rapalogs to FKBP

[1] = =IC50/IC50 of rapamycin, C7 rapalogs
[2] = FKBPwt FP binding assay IC50 (nM), C7 rapalogs
[3] = C7 rapalogs, read-out: FKBPwt FP binding assay IC50
[4] = FKBPwt FP binding assay IC50 (nM)
[5] = =IC50/IC50 of rapamycin, C24 analogs, Table 4
[6] = rapamycin C24 analogs, Table 4, read-out: FKBPwt FP binding assay IC50

T1 sequence (P62942 whole entry): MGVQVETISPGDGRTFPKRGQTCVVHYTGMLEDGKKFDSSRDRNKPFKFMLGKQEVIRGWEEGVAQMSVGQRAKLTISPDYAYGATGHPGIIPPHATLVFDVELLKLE

Compound	fold loss in affinity (cf rapamycin) [1]	IC50 [3] [nM]	fold loss in affinity (vs rapamycin) [5]	IC50 [6] [nM]	also measured
CO[C@@H]1C[C@H](C[C@@H](C)[C@@H]2CC(=O)[C@H](C)/C=C(\C)[C@@H](O)[C@@H](OC)C(=O)[C@H](C)C[C@H](C)/C=C/C=C/C=C(\C)[C@H](c3ccco3)C[C@@H]3CC[C@@H](C)[C@@](O)(O3)C(=O)C(=O)N3CCCC[C@H]3C(=O)O2)CC[C@H]1O [Compound 35]	13	–	–	–	IC50 [2]: 29 nM
CO[C@@H]1C[C@H](C[C@@H](C)[C@@H]2CC(=O)[C@H](C)/C=C(\C)[C@@H](O)[C@@H](OC)C(=O)[C@H](C)C[C@H](C)/C=C/C=C/C=C(\C)[C@@H](c3ccc(C(C)(C)C)s3)C[C@@H]3CC[C@@H](C)[C@@](O)(O3)C(=O)C(=O)N3CCCC[C@H]3C(=O)O2)CC[C@H]1O [Compound 41]	1.3	2.9	–	–	–
CO[C@@H]1C[C@H](C[C@@H](C)[C@@H]2CC(=O)[C@H](C)/C=C(\C)[C@@H](O)[C@@H](OC)C(=O)[C@H](C)C[C@H](C)/C=C/C=C/C=C(\C)[C@@H](c3ccc(C)s3)C[C@@H]3CC[C@@H](C)[C@@](O)(O3)C(=O)C(=O)N3CCCC[C@H]3C(=O)O2)CC[C@H]1O [Compound 36]	–	–	–	–	fold loss in affinity (cf rapamycin): 1.6; IC50 [4]: 3.7 nM
COc1ccc(C2CC3CCC(C)C(O)(O3)C(=O)C(=O)N3CCCCC3C(=O)OC(C(C)CC3CCC(O)C(OC)C3)CC(=O)C(C)C=C(C)C(O)C(OC)C(=O)C(C)CC(C)C=CC=CC=C2C)c(OC)c1 (single isomer, unassigned) [Compound 42]	1.0	2.2	–	–	–
CO[C@@H]1C[C@H](C[C@@H](C)[C@@H]2CC(=O)[C@H](C)/C=C(\C)[C@@H](O)[C@@H](OC)C(=O)[C@H](C)C[C@H](C)/C=C/C=C/C=C(\C)[C@H](c3ccc(C)s3)C[C@@H]3CC[C@@H](C)[C@@](O)(O3)C(=O)C(=O)N3CCCC[C@H]3C(=O)O2)CC[C@H]1O [Compound 37]	–	–	–	–	fold loss in affinity (cf rapamycin): 1.9; IC50 [4]: 4.3 nM
CO[C@@H]1C[C@H](C[C@@H](C)[C@@H]2CC(=O)[C@H](C)/C=C(\C)[C@@H](O)[C@@H](OC)C(=O)[C@H](C)C[C@H](C)/C=C/C=C/C=C(\C)[C@H](c3ccc(C(C)(C)C)s3)C[C@@H]3CC[C@@H](C)[C@@](O)(O3)C(=O)C(=O)N3CCCC[C@H]3C(=O)O2)CC[C@H]1O [Compound 40]	1.5	3.4	–	–	–
CO[C@@H]1C[C@H](C[C@@H](C)[C@@H]2CC(=O)[C@H](C)/C=C(\C)[C@@H](O)[C@@H](OC)C(=O)[C@H](C)C[C@H](C)/C=C/C=C/C=C(\C)[C@@H](NS(C)(=O)=O)C[C@@H]3CC[C@@H](C)[C@@](O)(O3)C(=O)C(=O)N3CCCC[C@H]3C(=O)O2)CC[C@H]1O [Compound 33]	1.1	2.5	–	–	–
CO[C@@H]1C[C@H](C[C@@H](C)[C@@H]2CC(=O)[C@H](C)/C=C(\C)[C@@H](O)[C@@H](OC)C(=O)[C@H](C)C[C@H](C)/C=C/C=C/C=C(\C)[C@@H](c3ccco3)C[C@@H]3CC[C@@H](C)[C@@](O)(O3)C(=O)C(=O)N3CCCC[C@H]3C(=O)O2)CC[C@H]1O [Compound 34]	12	–	–	–	IC50 [2]: 28 nM
apamycin (E and Z)-24-(O-benzyloxime) [Compound 11]	–	–	–	–	fold loss in affinity (vs rapamycin): 3627; IC50 (read-out: FKBPwt FP binding assay IC50): 8340 nM
CCc1ccc([C@@H]2C[C@@H]3CC[C@@H](C)[C@@](O)(O3)C(=O)C(=O)N3CCCC[C@H]3C(=O)O[C@H]([C@H](C)C[C@@H]3CC[C@@H](O)[C@H](OC)C3)CC(=O)[C@H](C)/C=C(\C)[C@@H](O)[C@@H](OC)C(=O)[C@H](C)C[C@H](C)/C=C/C=C/C=C/2C)s1 [Compound 39]	1.0	2.4	–	–	–
COc1ccc(C2CC3CCC(C)C(O)(O3)C(=O)C(=O)N3CCCCC3C(=O)OC(C(C)CC3CCC(O)C(OC)C3)CC(=O)C(C)C=C(C)C(O)C(OC)C(=O)C(C)CC(C)C=CC=CC=C2C)c(OC)c1 (single isomer, unassigned) [Compound 43]	8.7	20	–	–	–
CCc1ccc([C@H]2C[C@@H]3CC[C@@H](C)[C@@](O)(O3)C(=O)C(=O)N3CCCC[C@H]3C(=O)O[C@H]([C@H](C)C[C@@H]3CC[C@@H](O)[C@H](OC)C3)CC(=O)[C@H](C)/C=C(\C)[C@@H](O)[C@@H](OC)C(=O)[C@H](C)C[C@H](C)/C=C/C=C/C=C/2C)s1 [Compound 38]	1.1	2.5	–	–	–

Continued, in another order:

fold loss in affinity (cf rapamycin) [1]	IC50 [3] [nM]	fold loss in affinity (vs rapamycin) [5]	IC50 [6] [nM]	Compound	also measured
1.1	2.6	–	–	COC(=O)N[C@@H]1C[C@@H]2CC[C@@H](C)[C@@](O)(O2)C(=O)C(=O)N2CCCC[C@H]2C(=O)O[C@H]([C@H](C)C[C@@H]2CC[C@@H](O)[C@H](OC)C2)CC(=O)[C@H](C)/C=C(\C)[C@@H](O)[C@@H](OC)C(=O)[C@H](C)C[C@H](C)/C=C/C=C/C=C/1C [Compound 31]	–
–	–	190	438	CON=C1CC(C(C)CC2CCC(O)C(OC)C2)OC(=O)C2CCCCN2C(=O)C(=O)C2(O)OC(CCC2C)CC(OC)C(C)=CC=CC=CC(C)CC(C)C(=O)C(OC)C(O)C(C)=CC1C (single isomer, unassigned) [Compound 6, Rapamycin (E and Z)-24-(O-methyloxime)]	–
–	–	1287	2960	CCO/N=C1/C[C@@H]([C@H](C)C[C@@H]2CC[C@@H](O)[C@H](OC)C2)OC(=O)[C@@H]2CCCCN2C(=O)C(=O)[C@]2(O)O[C@@H](CC[C@H]2C)C[C@H](OC)/C(C)=C/C=C/C=C/[C@@H](C)C[C@@H](C)C(=O)[C@H](OC)[C@H](O)/C(C)=C/[C@H]1C [Compound 7, Rapamycin (E and Z)-24-(O-ethyloxime)]	–
–	–	3461	7960	COC1CC2CCC(C)C(O)(O2)C(=O)C(=O)N2CCCCC2C(=O)OC(C(C)CC2CCC(O)C(OC)C2)CC(=NOCC(=O)O)C(C)C=C(C)C(O)C(OC)C(=O)C(C)CC(C)C=CC=CC=C1C (single isomer, unassigned) [Compound 13, Rapamycin (E and Z)-24-(O-carboxymethyloxime)]	–
1.9	4.3	–	–	COC(=O)N[C@H]1C[C@@H]2CC[C@@H](C)[C@@](O)(O2)C(=O)C(=O)N2CCCC[C@H]2C(=O)O[C@H]([C@H](C)C[C@@H]2CC[C@@H](O)[C@H](OC)C2)CC(=O)[C@H](C)/C=C(\C)[C@@H](O)[C@@H](OC)C(=O)[C@H](C)C[C@H](C)/C=C/C=C/C=C/1C [Compound 32]	–
1.6	3.7	–	–	CCOC1C[C@@H]2CC[C@@H](C)[C@@](O)(O2)C(=O)C(=O)N2CCCC[C@H]2C(=O)OC([C@H](C)C[C@@H]2CC[C@@H](O)[C@H](OC)C2)CC(=O)[C@H](C)/C=C(\C)[C@@H](O)[C@@H](OC)C(=O)[C@H](C)C[C@H](C)/C=C/C=C/C=C/1C (stereo partly shown) [Compound 28]	–
–	–	1022	2350	COC1CC2CCC(C)C(O)(O2)C(=O)C(=O)N2CCCCC2C(=O)OC(C(C)CC2CCC(O)C(OC)C2)CC(=NOCC(=O)O)C(C)C=C(C)C(O)C(OC)C(=O)C(C)CC(C)C=CC=CC=C1C (single isomer, unassigned) [Compound 14, Rapamycin (E and Z)-24-(O-carboxymethyloxime)]	–
–	–	88.7	204	COC1CC2CCC(C)C(O)(O2)C(=O)C(=O)N2CCCCC2C(=O)OC(C(C)CC2CCC(O)C(OC)C2)CC(=NOCC(N)=O)C(C)C=C(C)C(O)C(OC)C(=O)C(C)CC(C)C=CC=CC=C1C (single isomer, unassigned) [Compound 16, Rapamycin (E and Z)-24-(O-carboxamidomethyloxime)]	–
1.1	2.6	–	–	CCOC1C[C@@H]2CC[C@@H](C)[C@@](O)(O2)C(=O)C(=O)N2CCCC[C@H]2C(=O)OC([C@H](C)C[C@@H]2CC[C@@H](O)[C@H](OC)C2)CC(=O)[C@H](C)/C=C(\C)[C@@H](O)[C@@H](OC)C(=O)[C@H](C)C[C@H](C)/C=C/C=C/C=C/1C (stereo partly shown) [Compound 27]	–
1.0	2.2	–	–	CO[C@@H]1C[C@H](C[C@@H](C)[C@@H]2CC(=O)[C@H](C)/C=C(\C)[C@@H](O)[C@@H](OC)C(=O)[C@H](C)C[C@H](C)/C=C/C=C/C=C(\C)[C@@H](OC(C)C)C[C@@H]3CC[C@@H](C)[C@@](O)(O3)C(=O)C(=O)N3CCCC[C@H]3C(=O)O2)CC[C@H]1O [Compound 29]	–
–	–	>13043	> 30000	COC1CC2CCC(C)C(O)(O2)C(=O)C(=O)N2CCCCC2C(=O)OC(C(C)CC2CCC(O)C(OC)C2)C/C(=N/OC(C)(C)C)C(C)C=C(C)C(O)C(OC)C(=O)C(C)CC(C)C=CC=CC=C1C (stereo not shown) [Compound 19]	–
–	–	269	618	COC1CC2CCC(C)C(O)(O2)C(=O)C(=O)N2CCCCC2C(=O)OC(C(C)CC2CCC(O)C(OC)C2)C/C(=N/O)C(C)C=C(C)C(O)C(OC)C(=O)C(C)CC(C)C=CC=CC=C1C (stereo not shown) [Compound 17]	–
–	–	890	–	COC1CC2CCC(C)C(O)(O2)C(=O)C(=O)N2CCCCC2C(=O)OC(C(C)CC2CCC(O)C(OC)C2)CC(=NOCC(C)C)C(C)C=C(C)C(O)C(OC)C(=O)C(C)CC(C)C=CC=CC=C1C (stereo not shown) [Compound 10, Rapamycin (E and Z)-24-(O-isobutyloxime)]	–
–	–	500	1150	COC1CC2CCC(C)C(O)(O2)C(=O)C(=O)N2CCCCC2C(=O)OC(C(C)CC2CCC(O)C(OC)C2)CC(=NOCC(N)=O)C(C)C=C(C)C(O)C(OC)C(=O)C(C)CC(C)C=CC=CC=C1C (single isomer, unassigned) [Compound 15, Rapamycin (E and Z)-24-(O-carboxamidomethyloxime)]	–
–	–	1046	2410	COC1CC2CCC(C)C(O)(O2)C(=O)C(=O)N2CCCCC2C(=O)OC(C(C)CC2CCC(O)C(OC)C2)C/C(=N\OC(C)(C)C)C(C)C=C(C)C(O)C(OC)C(=O)C(C)CC(C)C=CC=CC=C1C (stereo not shown) [Compound 20]	–
–	–	25.7	59.1	COC1CC2CCC(C)C(O)(O2)C(=O)C(=O)N2CCCCC2C(=O)OC(C(C)CC2CCC(O)C(OC)C2)C/C(=N\O)C(C)C=C(C)C(O)C(OC)C(=O)C(C)CC(C)C=CC=CC=C1C (stereo not shown) [Compound 18]	–
